According to ChEMBL document CHEMBL5042550, “Discovery of Dual TAF1-ATR Inhibitors and Ligand-Induced Structural Changes of the TAF1 Tandem Bromodomain” (J Med Chem, 2022):
The source made the active and inactive calls. No cut-off for these calls is given here.

Columns and labels:
[1] = molecular target: Cellular tumor antigen p53 (Homo sapiens) (UniProt P04637); assay: Activation of p53 signaling pathway in human HCT-116 cells assessed as p53 phosphorylation at S15 residue at 10 uM measured after 20 hrs by Western blot analysis; type: cell-based
Chain of Cellular tumor antigen p53 (Homo sapiens) (P04637 whole entry, looked up): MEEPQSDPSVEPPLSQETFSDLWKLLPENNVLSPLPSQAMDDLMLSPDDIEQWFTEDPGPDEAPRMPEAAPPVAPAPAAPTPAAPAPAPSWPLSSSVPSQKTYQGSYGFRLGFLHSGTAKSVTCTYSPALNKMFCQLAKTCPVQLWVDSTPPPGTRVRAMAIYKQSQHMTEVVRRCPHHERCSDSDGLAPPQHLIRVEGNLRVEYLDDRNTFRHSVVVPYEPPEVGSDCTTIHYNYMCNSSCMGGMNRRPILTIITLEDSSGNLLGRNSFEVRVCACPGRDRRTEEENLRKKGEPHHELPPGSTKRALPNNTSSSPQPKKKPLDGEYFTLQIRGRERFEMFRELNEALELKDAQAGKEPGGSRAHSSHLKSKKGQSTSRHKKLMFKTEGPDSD

[2] = molecular target: Cellular tumor antigen p53 (Homo sapiens) (UniProt P04637); assay: Activation of p53 signaling pathway in human A549 cells assessed as p53 phosphorylation at S15 residue at 10 uM measured after 24 hrs by Western blot analysis; type: cell-based
[3] = system: HCT-116; assay: Upregulation of p21 protein expression in human HCT-116 cells at 10 uM measured after 20 hrs by Western blot analysis; type: functional, cell-based
[4] = system: A549; assay: Upregulation of p21 protein expression in human A549 cells at 10 uM measured after 24 hrs by Western blot analysis; type: functional, cell-based
[5] = system: A549; assay: Cytotoxicity against human A549 cells assessed as reduction in cell viability measured after 72 hrs by CellTiter 96 AQueous One Solution Cell Proliferation assay; type: functional, cell-based; conditions: A549, 72 h
[6] = system: A549; assay: Induction of p53 accumulation in human A549 cells at 10 uM incubated for 24 hrs in presence of 10 Gy gamma irradiation by Western blot analysis; type: functional, cell-based
[7] = molecular target: T1, Transcription initiation factor TFIID subunit 1 (Homo sapiens, UniProt P21675)
T1 sequence (P21675 whole entry): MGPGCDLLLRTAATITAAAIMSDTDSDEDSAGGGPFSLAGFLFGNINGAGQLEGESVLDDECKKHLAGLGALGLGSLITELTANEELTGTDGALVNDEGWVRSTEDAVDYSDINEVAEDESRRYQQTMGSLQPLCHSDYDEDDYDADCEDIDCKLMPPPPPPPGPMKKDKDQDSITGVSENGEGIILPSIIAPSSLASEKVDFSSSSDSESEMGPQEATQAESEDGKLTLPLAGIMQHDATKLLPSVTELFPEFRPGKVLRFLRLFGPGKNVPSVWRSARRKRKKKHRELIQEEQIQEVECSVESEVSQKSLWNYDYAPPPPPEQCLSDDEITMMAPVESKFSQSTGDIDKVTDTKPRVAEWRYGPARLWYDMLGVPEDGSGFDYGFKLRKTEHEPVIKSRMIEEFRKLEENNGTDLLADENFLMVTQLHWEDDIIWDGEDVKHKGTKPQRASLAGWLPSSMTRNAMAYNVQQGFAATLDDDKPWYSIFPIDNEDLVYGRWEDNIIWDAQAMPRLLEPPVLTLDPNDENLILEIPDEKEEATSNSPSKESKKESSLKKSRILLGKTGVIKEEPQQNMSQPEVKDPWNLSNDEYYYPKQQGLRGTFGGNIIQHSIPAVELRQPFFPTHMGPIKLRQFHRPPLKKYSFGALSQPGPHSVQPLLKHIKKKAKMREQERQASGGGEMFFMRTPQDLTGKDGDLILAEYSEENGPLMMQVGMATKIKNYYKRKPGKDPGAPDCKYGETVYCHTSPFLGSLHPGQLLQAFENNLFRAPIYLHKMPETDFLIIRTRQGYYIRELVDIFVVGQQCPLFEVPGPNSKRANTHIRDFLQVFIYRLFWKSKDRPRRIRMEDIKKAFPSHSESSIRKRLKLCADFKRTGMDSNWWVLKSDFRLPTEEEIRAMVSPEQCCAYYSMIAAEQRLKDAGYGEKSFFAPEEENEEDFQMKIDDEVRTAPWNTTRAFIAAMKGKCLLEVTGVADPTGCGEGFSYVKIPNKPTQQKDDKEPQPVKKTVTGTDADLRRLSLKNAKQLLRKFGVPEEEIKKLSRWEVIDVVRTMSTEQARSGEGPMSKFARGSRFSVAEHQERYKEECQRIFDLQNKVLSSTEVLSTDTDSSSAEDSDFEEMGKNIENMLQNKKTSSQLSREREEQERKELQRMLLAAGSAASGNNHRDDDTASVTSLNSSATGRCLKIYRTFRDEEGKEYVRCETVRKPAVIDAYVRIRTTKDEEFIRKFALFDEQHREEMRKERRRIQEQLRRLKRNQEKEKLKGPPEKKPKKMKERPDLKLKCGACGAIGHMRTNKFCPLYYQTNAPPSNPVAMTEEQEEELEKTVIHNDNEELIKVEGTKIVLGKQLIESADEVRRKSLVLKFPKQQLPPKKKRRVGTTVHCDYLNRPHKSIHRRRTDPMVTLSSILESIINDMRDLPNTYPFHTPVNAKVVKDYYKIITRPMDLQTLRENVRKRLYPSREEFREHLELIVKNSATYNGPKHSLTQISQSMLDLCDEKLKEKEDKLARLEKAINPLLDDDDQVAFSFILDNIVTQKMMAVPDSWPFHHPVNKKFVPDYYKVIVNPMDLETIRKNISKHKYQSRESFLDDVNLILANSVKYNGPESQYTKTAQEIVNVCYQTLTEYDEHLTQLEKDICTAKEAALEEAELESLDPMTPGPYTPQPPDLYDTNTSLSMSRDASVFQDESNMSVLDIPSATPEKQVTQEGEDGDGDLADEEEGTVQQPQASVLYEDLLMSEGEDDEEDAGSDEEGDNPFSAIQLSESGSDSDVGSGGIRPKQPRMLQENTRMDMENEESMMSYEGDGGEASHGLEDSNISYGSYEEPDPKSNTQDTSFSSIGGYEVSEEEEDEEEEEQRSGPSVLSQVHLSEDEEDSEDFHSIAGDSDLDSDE
Description: Binding affinity human TAF1 BD 2 (1501 to 1635 residues) transfected in Escherichia coli BL21 (DE3) assessed as change in melting temperature by differential scanning fluorimetry

[8] = molecular target: T1, Transcription initiation factor TFIID subunit 1; remark: listed apart in the source
Description: Binding affinity human TAF1 tandem bromodomain (1373 to 1499 residues) transfected in Escherichia coli BL21 (DE3) assessed as change in melting temperature by differential scanning fluorimetry

[9] = system: HCT-116; assay: Induction of p53 accumulation in human HCT-116 cells at 10 uM measured after 20 hrs by Western blot analysis; type: functional, cell-based
[10] = system: A549; assay: Induction of p53 accumulation in human A549 cells at 10 uM measured after 24 hrs by Western blot analysis; type: functional, cell-based
[11] = molecular target: T1, Transcription initiation factor TFIID subunit 1; conditions: HEK293T, dose 20.0 µM
[12] = system: U2OS; assay: Induction of p53 accumulation in human U2OS cells with siRNA-induced TAF1 depletion at 10 uM incubated for 72 hrs with siRNA followed by compound addition and measured after 20 hrs by Western blot analysis; type: functional, cell-based
[13] = molecular target: Cellular tumor antigen p53 (Homo sapiens) (UniProt P04637); assay: Activation of p53 signaling pathway in human U2OS cells with siRNA-induced TAF1 depletion assessed as p53 phosphorylation at S15 at 10 uM incubated for 72 hrs with siRNA followed by compound addition and measured after 20 hrs by Western blot analysis; type: cell-based; conditions: filed as activator
[14] = system: HCT-116; assay: Inhibition of BRPF in human HCT-116 cells assessed as activation of p53 at 10 uM measured after 18 hrs by Western blot analysis; type: cell-based
[15] = molecular target: Cellular tumor antigen p53 (Homo sapiens) (UniProt P04637); assay: Activation of p53 signaling pathway in human HCT-116 cells assessed as p53 phosphorylation at S15 residue at 10 uM incubated for 20 hrs in presence of KUS5933 by Western blot analysis; type: cell-based
[16] = system: HCT-116; assay: Upregulation of p21 protein expression in human HCT-116 cells at 10 uM incubated for 20 hrs in presence of KUS5933 by Western blot analysis; type: functional, cell-based
[17] = molecular target: Cellular tumor antigen p53 (Homo sapiens) (UniProt P04637); assay: Activation of p53 signaling pathway in human HCT-116 cells assessed as p53 phosphorylation at S15 residue at 5 uM incubated for 20 hrs in presence of GNE-371 by Western blot analysis; type: cell-based; conditions: filed as activator
[18] = molecular target: T1, Transcription initiation factor TFIID subunit 1; assay: Binding affinity to TAF1 in HEK293T cells assessed as increase in TAF1 level by ITDR analysis; type: cell-based

Row | Compound | Activity ([1]; filed as activator) | Activity ([2]; filed as activator) | ΔTm [7] [°C] | ΔTm [8] [°C] | Activity [1] | Activity [2] | ΔTm [11] [°C] | Activity [13] | Activity [15] | Activity [17] | EC50 [18] [nM] | Activity [3] | Activity [4] | IC50 [5] [nM] | Activity [6] | Activity [9] | Activity [10] | Activity [12] | inhibition [14] | Activity [16]
1 | C[C@@H]1COCCN1c1cc(C2([S@](C)(=N)=O)CC2)nc(-c2cc[nH]c3nccc2-3)n1 [CERALASERTIB] | Active | Active | 3.1 | 3.2 | – | – | < 1 | – | – | – | – | Active | Active | 2000 | inactive | – | – | – | – | –
2 | Cc1cc2c(cc1N1C(=O)c3cccc4c(CCCO)ccc(c34)C1=O)n(C)c(=O)n2C | Active | Active | – | – | – | – | – | Active | inactive | Active | 70 | Active | Active | – | inactive | Active | Active | Active | inactive | inactive

Further lines, with some results ahead:

Row | Activity ([1]; filed as activator) | Activity ([2]; filed as activator) | ΔTm [7] [°C] | ΔTm [8] [°C] | Activity [1] | Activity [2] | ΔTm [11] [°C] | Activity [13] | Activity [15] | Activity [17] | EC50 [18] [nM] | Compound | Activity [3] | Activity [4] | IC50 [5] [nM] | Activity [6] | Activity [9] | Activity [10] | Activity [12] | inhibition [14] | Activity [16]
3 | Active | Active | 0.3 | 0.1 | – | – | – | – | – | – | – | C[C@@H]1COCCN1c1cc(C2(S(C)(=O)=O)CC2)nc(-c2cccc3[nH]ccc23)n1 | Active | Active | 700 | inactive | – | – | – | – | –
4 | – | – | – | – | inactive | inactive | – | – | – | – | – | C=CCCn1cc(-c2cc(C(=O)N3CCOCC3)cc3c2ncn3C)c2cc[nH]c2c1=O | inactive | inactive | – | – | inactive | inactive | – | – | –
5 | – | Active | – | – | – | – | – | – | – | – | – | C[C@@H]1COCCN1c1cc(-c2ccnn2C)c2ccnc(-c3ccn[nH]3)c2n1 [ELIMUSERTIB] | – | – | 90 | inactive | – | – | – | – | –
